Legend:
[1] = Final pH of treated solution; type: physicochemical; conditions: 0.2 grams of reagent; water 4.36
From the text: The basicity of certain reagents was examined in terms of the reagents' relative ability to recover iodine. […] The amount of each reagent was 0.2 grams.

[2] = cited from earlier work

[Mg+2].[OH-].[OH-] [Mg(OH)2, magnesium hydroxide]
Final pH of Treated Solution [1]: 8.86

[O]=[Ca] [CaO, calcium oxide]
Water Solubility [2]: 0.131 g/100 cc | Final pH of Treated Solution [1]: 12.34

[O]=[Mg] [MgO, magnesium oxide]
Water Solubility [2]: 0.001 g/100 cc | Final pH of Treated Solution [1]: 7.33

[Ca+2].[OH-].[OH-] [Ca(OH)2, calcium hydroxide]
Final pH of Treated Solution [1]: 12.23

O=C(O)O [CaCO3, Calcium carbonate]
Final pH of Treated Solution [1]: 7.12

O=C(O)O [MgCO3, magnesium carbonate]
Final pH of Treated Solution [1]: 7.96

Source: patent US5520901A, “Method for the recovery of iodine from an environment” (General Electric Company, priority 1993, dated 1996)
